According to US9446007B2, “Methods for maintaining or improving health, well-being and/or a physiological function in a subject” (DYNAMIS THERAPEUTICS, INC., priority 2012, dated 2016):

What was measured:
[1] = Effects of meglumine in a human subject (Example 8); format: in vivo; details: overweight person, 500-1,500 mg orally daily, 14 months
Description: A person was overweight and suffering from fatty liver, experienced sore joints, lacked energy and required extended recovery time after exercise & travel, was orally administered 500-1,500 mg of meglumine hydrochloride on a daily basis over the period of 14 months.

[2] = Effects of meglumine in a human subject (Example 7); format: in vivo; details: person on a blood thinner; orally daily, 1 month
From the text: A person on a blood thinner medication was orally administered meglumine hydrochloride on a daily basis over the period of 1 month.

[3] = Effects of meglumine in a human subject (Example 10); format: in vivo; details: person
Description: A person, suffering from scleroderma and type 2 diabetes, overweight and with difficulty to lose through dieting and exercise, experiencing less energy than when younger, was administered meglumine hydrochloride (500 mg to 2000 mg) orally almost every day over 5 years.

[4] = Effects of meglumine in a human subject (Example 6); format: in vivo; details: orally daily, one month
From the text: A person suffering from high blood pleasure was orally administered meglumine hydrochloride on a daily basis over the period of one month.

[5] = Effects of meglumine in a human subject (Example 9); format: in vivo; details: orally daily, 7 months
From the text: A person suffering from high blood sugar was orally administered meglumine hydrochloride on a daily basis over the period of 7 months.

triglyceride = experiment: Serum triglyceride levels; format: in vivo, KK.Cg-A^y/+/J diabetic mice; details: 18 mM in drinking water for 32 weeks; n=9; control 752.21±201.29; p<0.001
Description: Serum triglyceride levels were measured in KK.Cg-A^y/+/J diabetic mice treated with 18 mM meglumine hydrochloride in the drinking water for 32 weeks. […] A t-test was used to compare the mean values and a p<0.001 was calculated, indicating the decrease in plasma triglycerides in the meglumine treated mice is statistically significant.

[6] = Effects of meglumine in a human subject (Example 11): blood lipids, lipoproteins, inflammation markers; format: in vivo; details: person, type 2 diabetes, 3×500 mg orally, with metformin
Description: A person, suffering from type 2 diabetes, overweight (height of 5 feet 1 inch, and weight of 129 pounds, as of month 0) and with difficulty to lose weight through dieting and exercise, was administered meglumine hydrochloride (3×500 mg) orally over the period of 8 months. Over the duration of the study the subject was also administered metformin orally to manage their type 2 diabetes. The subject's blood was analyzed for lipids, lipoprotein particles and apolipoproteins, and inflammation/oxidation markers.

[7] = Effects of meglumine in a human subject (Example 5); format: in vivo; details: person, 500-1,500 mg orally daily over 5 years
Description: A person suffering from right knee joint pain, and otherwise in good health, was orally administered 500-1,500 mg of meglumine hydrochloride on a daily basis over the period of 5 years (with two months off).

albumin/creatinine ratio = experiment: Urinary albumin/creatinine; format: in vivo, KK.Cg-A^y/+/J and KK.Cg-A^+/+/J mice; details: 18 mM in drinking water, 12 weeks, not significant
Description: Urinary creatinine and albumin levels were measured in KK.Cg-A^y/+/J “mutant” diabetic mice and KK.Cg-A^+/+/J “control” mice treated with or without 18 mM meglumine hydrochloride in the drinking water for 12 weeks.

[8] = 500 mg to 2000 mg orally over 5 years

For `CNC[C@H](O)[C@@H](O)[C@H](O)[C@H](O)CO.Cl` [meglumine hydrochloride], the mental capacity [1] was “increased mental capacity”, the muscle strength [1] was “improved muscle strength” and the “nail and hair health” value [1] was “improvement in nail and hair health”. The “sexual stamina and sexual performance” value [1] was “improved sexual stamina and sexual performance”, the skin condition [1] was “improved” and the “vitality or energy levels” value [1] was “improved vitality or energy levels”. For the same molecule, the “weight lost per month” value [1] was “approximately 0.5 kg”, the “body weight on average” value ([1]; from 108 kg) was 102 kg and the “need for blood thinner medication” value [2] was “able to discontinue the use of the blood thinner”. For the same molecule, the weight lost ([3]; scleroderma and type 2 diabetes, 500 mg to 2000 mg orally almost every day, first two and one half years) was “over 30 pounds”, the “insulin and creatine/albumin levels” value ([3]; type 2 diabetes, 500 mg to 2000 mg orally over 5 years) was “normal” and the blood glucose level ([3]; type 2 diabetes, minimum dose of 500 mg three times a day) was “improved”. The HDL levels ([3]; 500 mg to 2000 mg orally) was “stayed the same”, the Lp-PLA level ([3]; 500 mg to 2000 mg orally) was “went down” and the fibrinogen homocysteine levels ([3]; 500 mg to 2000 mg orally) was “stayed the same”. For the same molecule, the eye sight [3, 8] was “improved”, the mental capacity [3, 8] was “has not deteriorated” and the overall energy levels [3, 8] was “increased”. For the same molecule, the “overall skin tone and texture” value [3, 8] was “improved”, the CRP level ([3]; 500 mg to 2000 mg orally, from 0.58) was less than 0.3 and the LDL level ([3]; 500 mg to 2000 mg orally, from 209, within the last 16 months) was 160 mg/dL. For the same molecule, the cholesterol levels ([3]; 500 mg to 2000 mg orally, from 300, without diet change or any medicines) was 265 mg/dL, the blood pressure ([4]; person with high blood pressure, reduced from 220/110) was “around 130/78” and the sleep and energy ([4]; person) was “better sleep and felt more energetic”. For the same molecule, the body weight ([4]; person, at least one dress size) was “weight loss”, the blood glucose level ([5]; person with high blood sugar, decrease from 202) was 75 mg/dL and the weight loss ([5]; person with high blood sugar, without regain) was 25 pounds. The mental capacity ([5]; person) was “increased mental capacity”, the “nail and hair health” value ([5]; person) was “improvement in nail and hair health” and the “sexual stamina and sexual performance” value ([5]; person) was “dramatically improved sexual stamina and sexual performance”. For the same molecule, the skin condition ([5]; person) was “improved”, the “vitality or energy levels” value ([5]; person) was “improved vitality or energy levels” and the serum triglyceride levels (triglyceride) was 322.66 ± 158.85 mg/dL. For the same molecule, the “Apo B:Apo A-I ratio (calculated)” value ([6]; month 8 (month 0: 0.73)) was 0.45, the “Lp(a) mass” value ([6]; month 8 (month 0: 5)) was 6 mg/dL and the HDL2-C ([6]; month 8 (month 0: 19)) was 22 mg/dL. For the same molecule, the “% sdLDL-C (calculated)” value ([6]; month 8 (month 0: 35)) was 25%, the HDL-P ([6]; month 8 (month 0: 44.3)) was 43.7 μmol-L and the sdLDL-C ([6]; month 8 (month 0: 56)) was 28 mg/dL. For the same molecule, the “Lipids: HDL-C” value ([6]; month 8 (month 0: 69)) was 71 mg/dL, the “Apo B” value ([6]; month 8 (month 0: 133)) was 79 mg/dL and the “Lipids: triglycerides” value ([6]; month 8 (month 0: 135)) was 82 mg/dL. The Lp-PLA2 ([6]; month 8 (month 0: 152)) was 172 ng/mL, the “Lipids: LDL-C direct” value ([6]; month 8 (month 0: 160)) was 111 mg/dL and the “Apo A-I” value ([6]; month 8 (month 0: 183)) was 176 mg/dL. The “Lipids: non-HDL-C (calculated)” value ([6]; month 8 (month 0: 196)) was 134 mg/dL, the “Lipids: total cholesterol” value ([6]; month 8 (month 0: 265)) was 205 mg/dL and the fibrinogen ([6]; month 8 (month 0: 332)) was 334 mg/dL. The LDL-P ([6]; month 8 (month 0: 2,250)) was 1,529 nmol/L, the hs-CRP ([6]; month 8 (month 0: <0.3)) was 0.3 mg/L and the body weight [7] was “overall weight loss/control effect”. The “increase in arm diameter” value [7] was 1 inch, the mental capacity [7] was “increased mental capacity” and the muscle-to-fat index [7] was “increase in muscle-to-fat index”. For the same molecule, the “sexual stamina and sexual performance” value [7] was “improved sexual stamina and sexual performance”, the skin condition [7] was “improved” and the “vitality or energy levels” value [7] was “improved vitality or energy levels”. It also gave a military press weights ([7]; from 200 lb) of 355 lb, a urinary albumin/creatinine ratio (albumin/creatinine ratio; KK.Cg-A^+/+/J control mice, without meglumine 2.5±1.2) of 1.6±1.8 and a urinary albumin/creatinine ratio (albumin/creatinine ratio; KK.Cg-A^y/+/J mutant diabetic mice, without meglumine 17.3±15.4) of 12.4±8.7.
